The record followed here is patent publication US20230003644A1, “PHOTONIC CHIP FOR MONITORING ACTIVITIES OF LIVING CELLS” (THE UNIVERSITY OF HONG KONG, priority 2021, published 2023).

One series relates to NIH 3T3 cells. The series is described as follows: Label-free monitoring of cell adhesion, morphology and intracellular dynamics on the LED/GaN chipscope (photocurrent and DIC imaging). The series is classed as cell-based. The source says: As a monolithic integration design of the chip, the same shared sapphire substrate can realize the light coupling from the LED to the PD without any external optics, as shown in FIG. 5a. In particular, when the lights emitted from LED reached external media with a low RI (i.e., nmedia<nsapphire), total internal reflection occurred at the sapphire/media interface, causing some light to be reflected into the light-detecting region. The intensity of the reflected light is then detected by the PD. Since the critical angle enlarges as the refractive index increases, less light is reflected back to the PD, resulting in a decrease in the photocurrent. When the cells are in contact with the chip surface, the sensor provides a rapid photocurrent response due to the obvious RI change from sapphire-culture medium (1.78 to 1.337) to sapphire-cells (1.78 to 1.343-1.48). Furthermore, the formation of strong cell-substrate adhesion and/or the evolution of cell morphology could also result in changes in the recorded photocurrent.
NIH 3T3 cells are used in the present study due to their rapid adhesion response and significant cell area changes during spreading. First performed a live/dead assay test to evaluate the potential phototoxicity of the chip to the cells. […] Next, after the chip was stabilized in the incubator at 37° C., the cell suspension was added into the chip chamber. […] Benefitting from the integrated mini-DIC imaging system, we can clearly capture the cell morphology changes in real-time. As shown in the top panel of FIG. 7b, the round cells gradually precipitated onto the chip surface in the first 30 min (step 1), and then started to extend in the next 4 h (step 2). After that, they continued to flatten and formed a dense monolayer sheet covering the entire chip surface (step 3). These observed cell morphology changes closely matched the optical response of the chip, indicating the successful integration of GaN chip-based sensing and DIC imaging units in our system for cellular activity monitoring. Additionally, to mimic the cell detachment process (step 4), we treated the cells with sodium dodecyl sulfate (SDS), a known surfactant that can detach and lyse adhering cells from culture dishes or flasks.
• Cells (NIH 3T3, 0.3 million/mL, 500 uL, 37° C.) were seeded on the LED chip and transferred to the incubator (37° C.). Then the ammeter started to monitor the optical current at specific time points. The control experiment was performed by monitoring the solo cell culture medium with an identical chip (DMEM, 500 uL, 37° C.). • The bright-field images of cells were collected at specific time points to monitor the initial stage of cells adhesion and extension. The cells were cultured on sapphire, the substrate of which was identical with the top layer of LED chips.
3T3 cells were grown on the chip surface for overnight and then were washed once and replaced with HEPES buffer (HBSS). After the system was restabilized, various concentrations of thrombin (MCE) were injected into the cell chamber. The signal dynamics were recorded by a meter.

For series [1], the system named is human lung adenocarcinoma cells (A549). The series is described as follows: GaN chipscope drug screening: cytotoxicity of an anticancer drug on an A549 cell monolayer (photocurrent and imaging). In kind it is cell-based. The conditions noted are these: for decrease of cell confluence: after 24 h incubation. The method, then:
The A549 cells are seeded in the chamber of the platform and cultured for 24 h for fully spreading. Afterward, 10 μM, 30 μM or 50 μM of β-lapachone is added into the chambers, respectively.
Additionally, the photocurrent curves offered valuable practical information for the study of drug-cell interactions. First, by plotting the slope of the tangent line, the speed of cell response at different periods was analyzed. […] Indeed, a higher dose is more toxic and induces faster cell death. Thirdly, by coupling the imaging system, we were able to qualitatively and quantitatively analyze the cell-drug interactions. As shown in FIG. 9b-d, the cells shrank in a dose-dependent manner after β-lapachone treatment. Specifically, cells treated with a lower dose (10 μM) slowly shrank over time, but there is no obvious increase in intercellular spaces during the 24 h. […] It is believed that the increase in photocurrent in higher dose-treated cells is contributed by both cell morphology changes as well as by cell intracellular dynamics alternation. Further, the cell confluency is calculated based on the photos taken by the imaging system.

Series [2] has the same test system. The description is as above. The series is classed as cell-based. The conditions noted are these: A549, 5 hours of drug treatment.
Series [3] relates to human monocytic THP-1 cells. The series is described as follows: GaN chipscope monitoring of cell differentiation (cell area and roundness from images). In kind it is cell-based. The following applies: THP-1 monocyte to M0, PMA 25 ng/mL, 3-9 h after stimulation. The text has this: The cell refractive index is an intrinsic optical parameter that varies with different cell phenotypes. This inspired the exploration of whether the sensing platform could track online the dynamics of cell differentiation and distinguish the different cell phenotypes. In this experiment, human monocytic THP-1 cells are employed as the cell model due to their multi-phenotypic characteristics, including the initial suspended monocyte, adhered macrophage (M0), and two major polarized states (adhered M1 and M2). Here, THP-1 cells differentiated from suspended state (monocyte) to adhered M0 state by phorbol 12-myristate 13-acetate (PMA), followed by induction of the resultant M0 cells to polarize to M1 by LPS/FN-gamma. The process is monitored throughout by the GaN chipscope system (FIG. 10a).
Consistent with the photocurrent signal, the imaging system recorded a fast cell rolling behavior in the initial 30 min before the cells settled down (FIG. 10b). PMA (25 ng/mL) is then loaded to trigger monocyte to macrophage differentiation. It is evident from the photocurrent signal that monocytes responded strongly against PMA in 3-9 h after stimulation, and this response became mild in the following 11 h (FIG. 10b).
Phorbol-12-myristate-13-acetate (PMA, MCE, 25 ng/mL) was used to induce monocytes differentiation to M0 macrophages. […]

Another series concerns THP-1 cells. The series is described as follows: Flow cytometry of macrophage surface markers CD11b and CD80. The series is classed as cell-based, human. The following applies: THP-1 cells after incubation with PMA. The method, then: Phorbol-12-myristate-13-acetate (PMA, MCE, 25 ng/mL) was used to induce monocytes differentiation to M0 macrophages. For further polarization, 100 ng/mL lipopolysaccharide (LPS, Thermo) and 20 ng/mL interferon-γ (IFN-γ, Thermo) were added to the culture to induce M1 generation. The cells were stimulated to M0 and M1 macrophages for 24 h. Flow cytometry and immunofluorescence staining were used to assess the expression of macrophage-specific cell surface marker: CD11 b for monocyte/macrophage differentiation and CD 80 for M1 macrophage polarization.
The harvested cells were washed with cold PBS and then the Fc receptor binding sites were blocked by incubating with Human TruStain FcX™ (422302, Biolegned) on ice for 20 min. The cells were then incubated with either FITC labeled CD 11 b (301329, Biolegend) or FITC labeled CD 80 (305206, Biolegend) in darkness for another 30 min. After centrifugation, the cells were washed twice with FACS buffer (PBS containing 2% BSA) and immediately measured by the flow cytometer Novoexpress (Agilent).
(In flow cytometry, cells or beads pass a laser one at a time.)

The subject of another series is intracellular Ca2+. The series is described as follows: Living cell calcium tracking (Fluo-3 fluorescence). The following applies: low-dose thrombin (2 U/mL). The series is classed as cell-based. The method, then:
After the cells were grown on the confocal dish for 24 h, they were washed by PBS and cultured in living cell fluorescence imaging medium (Thermo) with the calcium indicator (Fluo-3, Invitrogen, […]) and pluronic F-127 (0.02%) in incubator for 1 h. They were then washed by fresh culture medium twice and incubated for a further 30 min to allow complete de-esterification of intracellular acetoxymethyl esters. The living cell fluorescent images were then captured by fluorescence microscope (Zeiss) with the frame rate of 1 side/min.

In the case of `Cc1ccc2c(c1)C(=O)C1(O)CCN(c3ccccc3)C1=N2` (centres unmarked) [blebbistatin], the “cell morphology after treatment (imaging)” value in the series on NIH 3T3 cells (3T3 cells, 50 μM, next 1 h, increased cell gaps and dendritic morphologies) is recorded as “gradually shrank”. Also, in the series with NIH 3T3 cells (3T3 cells, blebbistatin 50 μM, treated for 50 min), the “increase of relative optical current compared to the control group” value is 1.02%.
Turning to `CC1(C)CCC2=C(O1)c1ccccc1C(=O)C2=O` [β-lapachone], the “reaction time of the cells from photocurrent curve” value in series [1] (A549, 10 μM) came to 20.2 h; in series [1] (A549, 30 μM), 11.6 h; in series [1] (A549, 50 μM), 12.5 h. In addition, the “cytotoxicity in A549 cells (photocurrent increase with drug concentration)” value in series [1] (A549, 10, 30, 50 μM) is listed as “dose-depend cytotoxicity”. For the same compound, the “speed of cell response (slope of photocurrent curve) at 50 μM relative to 10 μM” value in series [1] (A549, first 5 h of stimulation) came to 6.05 times. Moreover, the “speed of cell response (slope of photocurrent curve) at 50 μM relative to 30 μM” value in series [1] (A549, first 5 h of stimulation) is on record as 2.85 times. Moreover, the “decrease of cell confluence” value is reported as 23.1% in series [1] (A549, high dose (50 μM)); 0% in series [1] (A549, low dose (10 μM)); 19.0% in series [1] (A549, medium dose (30 μM)). Further, the “photocurrent response monitored by the LED sensor during drug treatment” value in series [2] is on record as “gradually increased”.
Turning to `CCCCCCCCCCCCCC(=O)O[C@@H]1[C@@H](C)[C@@]2(O)[C@@H](C=C(CO)C[C@]3(O)C(=O)C(C)=C[C@@H]23)[C@@H]2C(C)(C)[C@]12OC(C)=O` [PMA, phorbol 12-myristate 13-acetate], the “increase in cell spreading area” value in series [3] worked out at 137%. The “expression of CD11b” value in the series on THP-1 cells is “significantly increased”.
`CCCCCCCCCCCCOS(=O)(=O)[O-].[Na+]` [SDS, sodium dodecyl sulfate]: the “rapid increase of photocurrent signal after addition” value with NIH 3T3 cells (3T3 monolayer, cell detachment step) amounted to 4.24%. The “detachment of cell monolayer from chip surface” value in the series on NIH 3T3 cells (3T3 monolayer, within a few seconds of loading) is recorded as “completely detached”.
For the compound thrombin, the “time at which photocurrent reached a plateau” value in the series on NIH 3T3 cells (3T3 monolayer, thrombin 150 U/mL) is 50 min. In addition, the “maximal change (increase) of photocurrent” value in the series with NIH 3T3 cells (3T3 monolayer, thrombin high dose 150 U/mL) turned out to be 1.66%. The “decrease of photocurrent signal” value with NIH 3T3 cells (3T3 monolayer, thrombin low dose 2 U/mL, first 10 min, returned to initial level in next 30 min) came to 0.94%. The “calcium fluorescence response of living cells” value with intracellular Ca2+ is listed as “biphasic cell response”.
